# Test results: patent US20160222432A1, “TEST STRIP USING FORMALDEHYDE OR PEROXIDE, FROM AMONG SARCOSINE METABOLITES, FOR DIAGNOSING PROSTATE CANCER, AND METHOD FOR DIAGNOSING PROSTATE CANCER USING SAME” (CSQUARE CO., LTD, priority 2013, published 2016)
# Test system: sarcosine oxidase
# Assay: Influence of metal ions (metal chloride salts) on sarcosine oxidase activity
# Type: biochemical
# Details: sarcosine oxidase activity with metal chloride salt, final concentration 2 mM, None = 100
# Experimental: As shown in the following Table 1, activity of the sarcosine oxidase was greatly influenced by metal ions. Since metal ions were inevitably contained in the sample, EDTA was added at 0.01 to 0.02 g/dL to chelate the metal ions and to prevent activity of the sarcosine oxidase from decreasing due to the metal ions. In this case, when an amount of EDTA added was small, the metal ions were not sufficiently removed. […] In the present example, EDTA4NA was used. However, another substance that can chelate the metal ions could be used. Then, AHMT serving as a chromogen was dissolved at 20 to 50 mM. In this case, when an amount of the reagent added was small, there was no difference in color development between specimens of an intermediate concentration and a high concentration. On the other hand, when an amount of the reagent added was large, discoloration was caused in a natural state, which caused a change in a product or a false positive result.
# As shown in the following Table 2, activity of the sarcosine oxidase is greatly influenced by metal ions. When an excessive amount of metal ions was contained in the sample, EDTA was added at 0.01 to 0.02 g/dL in order to chelate and remove the metal ions and prevent activity of the sarcosine oxidase from decreasing due to the metal ions. That is, EDTA serves as a metal adsorber and facilitates activation of the enzymes. In the present example, EDTA4NA was used. However, another substance that can chelate the metal ions could be used. When an amount of EDTA added was small, the metal ions were not sufficiently removed.
Compound,Relative activity (%) (Table 1 (first example)),Relative activity (%) (Table 2 (second example))
[Cl][Cu][Cl] [Cu^2+],0,0
[Cl-].[Cl-].[Zn+2] [Zn^2+],7,7
[Cl][Hg][Cl] [Hg^2+],0,0
[Cl][Mn][Cl] [Mn^2+],63,63
[Cl-].[Cl-].[Co+2] [Co^2+],52,52
[Cl][Cd][Cl] [Cd^2+],7,7
[Cl][Ni][Cl] [Ni^2+],76,76
[Cl][Fe][Cl] [Fe^2+],66,66
